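Values below derive from 48-hour exposures of cells grown in 96-well plates, with endpoints linearly interpolated between the two concentrations bracketing the appropriate inhibition level. At the GI50, growth is halved. TGI is the concentration that stops growth completely.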
Assays:
Experiment in all cases: DTP human tumour cell line panel, 48 h
PC-3 prostate = system: PC-3 prostate
OVCAR-8 ovarian = system: OVCAR-8 ovarian
HOP-92 NSCLC = system: HOP-92 NSCLC
EKVX NSCLC = system: EKVX NSCLC
HS 578T breast = system: HS 578T breast
MALME-3M melanoma = system: MALME-3M melanoma
HT29 colon = system: HT29 colon
SF-539 CNS = system: SF-539 CNS
HCT-116 colon = system: HCT-116 colon
HCC-2998 colon = system: HCC-2998 colon
TK-10 renal = system: TK-10 renal
MCF7 breast = system: MCF7 breast
SN12C renal = system: SN12C renal
786-0 renal = system: 786-0 renal
SNB-19 CNS = system: SNB-19 CNS
MDA-MB-435 = system: MDA-MB-435
SK-MEL-2 melanoma = system: SK-MEL-2 melanoma
MOLT-4 leukemia = system: MOLT-4 leukemia
IGROV1 ovarian = system: IGROV1 ovarian
UO-31 renal = system: UO-31 renal
K-562 leukemia = system: K-562 leukemia
U251 CNS = system: U251 CNS
BT-549 breast = system: BT-549 breast
COLO 205 colon = system: COLO 205 colon
NCI-H522 lung = system: NCI-H522 lung
A549 NSCLC = system: A549 NSCLC
ACHN renal = system: ACHN renal
OVCAR-4 ovarian = system: OVCAR-4 ovarian
A498 renal = system: A498 renal
RXF 393 renal = system: RXF 393 renal
HOP-62 NSCLC = system: HOP-62 NSCLC
UACC-257 melanoma = system: UACC-257 melanoma
NCI-H23 lung = system: NCI-H23 lung
CCRF-CEM leukemia = system: CCRF-CEM leukemia
M14 melanoma = system: M14 melanoma
SK-OV-3 ovarian = system: SK-OV-3 ovarian
LOX IMVI melanoma = system: LOX IMVI melanoma
T-47D breast = system: T-47D breast
DU-145 prostate = system: DU-145 prostate
SK-MEL-28 melanoma = system: SK-MEL-28 melanoma
OVCAR-5 ovarian = system: OVCAR-5 ovarian
KM12 colon = system: KM12 colon
SF-268 CNS = system: SF-268 CNS
UACC-62 melanoma = system: UACC-62 melanoma
SNB-75 CNS = system: SNB-75 CNS
SW-620 colon = system: SW-620 colon
NCI-H460 lung = system: NCI-H460 lung
SR leukemia = system: SR leukemia
MDA-MB-231 breast = system: MDA-MB-231 breast
NCI-H226 lung = system: NCI-H226 lung
SF-295 CNS = system: SF-295 CNS
HCT-15 colon = system: HCT-15 colon
CAKI-1 renal = system: CAKI-1 renal
HL-60(TB) leukemia = system: HL-60(TB) leukemia
RPMI-8226 leukemia = system: RPMI-8226 leukemia
SK-MEL-5 melanoma = system: SK-MEL-5 melanoma
OVCAR-3 ovarian = system: OVCAR-3 ovarian
NCI/ADR-RES ovarian = system: NCI/ADR-RES ovarian

O=C1Nc2cc(Cl)ccc2/C1=C\c1c(-c2ccc(F)cc2)nc2ccccn12
GI50 (PC-3 prostate): 1.14 µM
TGI (PC-3 prostate): 5.39 µM
GI50 (OVCAR-8 ovarian): 1.98 µM
TGI (OVCAR-8 ovarian): 8.21 µM
GI50 (HOP-92 NSCLC): 4.42 µM
TGI (HOP-92 NSCLC): 26.5 µM
GI50 (EKVX NSCLC): 2.77 µM
TGI (EKVX NSCLC): > 100 µM
GI50 (HS 578T breast): 1.66 µM
TGI (HS 578T breast): > 20.4 µM
GI50 (MALME-3M melanoma): 0.69 µM
TGI (MALME-3M melanoma): 2.41 µM
GI50 (HT29 colon): 0.389 µM
TGI (HT29 colon): 1.34 µM
GI50 (SF-539 CNS): 0.915 µM
TGI (SF-539 CNS): 2.95 µM
GI50 (HCT-116 colon): 0.444 µM
TGI (HCT-116 colon): 1.63 µM
GI50 (HCC-2998 colon): 1.1 µM
TGI (HCC-2998 colon): 2.88 µM
GI50 (TK-10 renal): 1.38 µM
TGI (TK-10 renal): 2.99 µM
GI50 (MCF7 breast): 0.387 µM
TGI (MCF7 breast): 2.42 µM
GI50 (SN12C renal): 1.03 µM
GI50 (786-0 renal): 0.998 µM
TGI (786-0 renal): 2.59 µM
GI50 (SNB-19 CNS): 1.15 µM
TGI (SNB-19 CNS): 22.1 µM
GI50 (MDA-MB-435): 0.167 µM
TGI (MDA-MB-435): 0.519 µM
GI50 (SK-MEL-2 melanoma): 0.458 µM
TGI (SK-MEL-2 melanoma): 2.19 µM
GI50 (MOLT-4 leukemia): 0.563 µM
TGI (MOLT-4 leukemia): > 100 µM
GI50 (IGROV1 ovarian): 1.02 µM
TGI (IGROV1 ovarian): 5.82 µM
GI50 (UO-31 renal): 0.686 µM
TGI (UO-31 renal): 2.7 µM
GI50 (K-562 leukemia): 0.32 µM
TGI (K-562 leukemia): > 100 µM
GI50 (U251 CNS): 0.541 µM
TGI (U251 CNS): 2.09 µM
GI50 (BT-549 breast): 1.21 µM
TGI (BT-549 breast): 5.68 µM
GI50 (COLO 205 colon): 0.552 µM
TGI (COLO 205 colon): 1.94 µM
GI50 (NCI-H522 lung): 0.239 µM
TGI (NCI-H522 lung): 0.919 µM
GI50 (A549 NSCLC): 0.69 µM
TGI (A549 NSCLC): 2.15 µM
GI50 (ACHN renal): 1.25 µM
TGI (ACHN renal): 3.22 µM
GI50 (OVCAR-4 ovarian): 1.45 µM
TGI (OVCAR-4 ovarian): 3 µM
GI50 (A498 renal): 1.31 µM
TGI (A498 renal): 6.03 µM
GI50 (RXF 393 renal): 0.631 µM
TGI (RXF 393 renal): 2.19 µM
GI50 (HOP-62 NSCLC): 0.916 µM
TGI (HOP-62 NSCLC): 2.29 µM
GI50 (UACC-257 melanoma): 5.02 µM
TGI (UACC-257 melanoma): 48.5 µM
GI50 (NCI-H23 lung): 0.765 µM
TGI (NCI-H23 lung): 4.45 µM
GI50 (CCRF-CEM leukemia): 0.832 µM
TGI (CCRF-CEM leukemia): > 100 µM
GI50 (M14 melanoma): 0.51 µM
TGI (M14 melanoma): 2.57 µM
GI50 (SK-OV-3 ovarian): 1.05 µM
TGI (SK-OV-3 ovarian): 2.42 µM
GI50 (LOX IMVI melanoma): 0.723 µM
TGI (LOX IMVI melanoma): 2.65 µM
GI50 (T-47D breast): 1.12 µM
TGI (T-47D breast): 2.96 µM
GI50 (DU-145 prostate): 1.49 µM
GI50 (SK-MEL-28 melanoma): 0.995 µM
TGI (SK-MEL-28 melanoma): 4.59 µM
GI50 (OVCAR-5 ovarian): 1.7 µM
TGI (OVCAR-5 ovarian): 5.81 µM
GI50 (KM12 colon): 0.573 µM
TGI (KM12 colon): > 100 µM
GI50 (SF-268 CNS): 1.29 µM
TGI (SF-268 CNS): > 24.6 µM
GI50 (UACC-62 melanoma): 0.546 µM
TGI (UACC-62 melanoma): 12.4 µM
GI50 (SNB-75 CNS): 0.304 µM
TGI (SNB-75 CNS): 1.34 µM
GI50 (SW-620 colon): 0.445 µM
TGI (SW-620 colon): 2.6 µM
GI50 (NCI-H460 lung): 0.408 µM
TGI (NCI-H460 lung): 1.49 µM
GI50 (SR leukemia): 0.112 µM
TGI (SR leukemia): > 100 µM
GI50 (MDA-MB-231 breast): 1.48 µM
TGI (MDA-MB-231 breast): 6.38 µM
GI50 (NCI-H226 lung): 1.32 µM
TGI (NCI-H226 lung): 3.65 µM
GI50 (SF-295 CNS): 0.376 µM
TGI (SF-295 CNS): 1.73 µM
GI50 (HCT-15 colon): 0.686 µM
TGI (HCT-15 colon): 7.26 µM
GI50 (CAKI-1 renal): 0.498 µM
TGI (CAKI-1 renal): 2.13 µM
GI50 (HL-60(TB) leukemia): 0.346 µM
TGI (HL-60(TB) leukemia): 1.46 µM
GI50 (RPMI-8226 leukemia): 1.36 µM
GI50 (SK-MEL-5 melanoma): 0.559 µM
TGI (SK-MEL-5 melanoma): 2.04 µM
GI50 (OVCAR-3 ovarian): 0.424 µM
TGI (OVCAR-3 ovarian): 2.97 µM
GI50 (NCI/ADR-RES ovarian): 0.277 µM
TGI (NCI/ADR-RES ovarian): 1.06 µM

Source: PubChem BioAssay (NCI)
